Assay results reported in ChEMBL document CHEMBL1129242, “(2E)-5-[3-[(phenylsulfonyl)amino]phenyl]-pent-2-en-4-ynohydroxamic acid and its derivatives as novel and potent inhibitors of ras transformation” (1996).
≈ marks a conversion by molar mass, not a printed value.

Tests used:
NIH3T3 [1] = test: Minimum inhibitory concentration for the inhibition of transformation in ras- transformed cells(ras/ NIH3T3); format: functional; details: Mus musculus
NIH3T3 [2] = test: Minimum inhibitory concentration for the inhibition of transformation in ras- transformed cells(ras/ NIH3T3); Not effective at the highest concentration tested (100 uM); format: functional, cell-based; details: Mus musculus

| SMILES | MIC (NIH3T3 [1]) [µM] | MIC (NIH3T3 [2]) |
| --- | --- | --- |
| O=C(/C=C/C#Cc1cccc(NS(=O)(=O)c2ccc(F)cc2)c1)NO | 0.08 (≈ 0.0288 µg/mL) | – |
| O=C(/C=C/C#Cc1cccc(NS(=O)(=O)c2ccc3ccccc3c2)c1)NO | 0.08 (≈ 0.0314 µg/mL) | – |
| O=C(/C=C/C=C/c1cc2ccccc2cc1NS(=O)(=O)c1ccccc1)NO | 0.32 (≈ 0.126 µg/mL) | – |
| O=C(CCCC/C=C/c1ccccc1NS(=O)(=O)c1ccccc1)NO | 4.3 (≈ 1.61 µg/mL) | – |
| O=C(/C=C/C#CC#Cc1cccc(NS(=O)(=O)c2ccccc2)c1)NO | – | Not effective at the highest concentration tested (100 uM) |
| O=C(CCCC/C=C\c1ccccc1NS(=O)(=O)c1ccccc1)NO | 17 (≈ 6.37 µg/mL) | – |
| O=C(/C=C/C=C/c1ccc(NS(=O)(=O)c2ccccc2)cc1)NO | 1.6 (≈ 0.551 µg/mL) | – |
| O=C(/C=C/C#Cc1cccc(NS(=O)(=O)c2ccc([N+](=O)[O-])cc2)c1)NO | 0.64 (≈ 0.248 µg/mL) | – |
| O=C(/C=C/C#Cc1cccc(NS(=O)(=O)c2ccc(Br)cc2)c1)NO | 0.16 (≈ 0.0674 µg/mL) | – |
| COc1ccc(S(=O)(=O)Nc2cccc(C#C/C=C/C(=O)NO)c2)cc1 | 0.08 (≈ 0.0298 µg/mL) | – |
| O=C(/C=C/C=C/c1ccccc1NS(=O)(=O)c1ccccc1)NO | 1.6 (≈ 0.551 µg/mL) | – |
| Cc1ccc(S(=O)(=O)Nc2cccc(C#C/C=C/C(=O)NO)c2)cc1 | 0.16 (≈ 0.057 µg/mL) | – |
| CN(c1ccccc1/C=C/C=C/C(=O)NO)S(=O)(=O)c1ccccc1 | 0.8 (≈ 0.287 µg/mL) | – |
| O=C(/C=C/C=C/c1cc2ccccc2n1S(=O)(=O)c1ccccc1)NO | 0.4 (≈ 0.147 µg/mL) | – |
| O=C(/C=C/C=C/c1cccc(NS(=O)(=O)c2ccccc2)c1)NO | 0.3 (≈ 0.103 µg/mL) | – |
| CN(c1cccc(/C=C/C=C/C(=O)NO)c1)S(=O)(=O)c1ccccc1 | 0.6 (≈ 0.215 µg/mL) | – |
